The record followed here is DBAASP.

The MIC is the lowest concentration found to suppress growth. Low readings indicate inhibition by little substance, high ones a need for much substance.

What all share (assay): ≥ marks a high value that may be exact or a test limit, other limits are often not marked, values filed in µg/mL are converted to µM
One test has as its system Bacillus subtilis.
Test [1] relates to Candida albicans ATCC 2002.
Another test relates to Escherichia coli ML-35p.
For test [2], the system named is Pseudomonas aeruginosa ATCC 27853.
Test [3] concerns Pseudomonas aeruginosa PAO1.
For test [4], the system named is Staphylococcus aureus ATCC 25923.
Test [5] deals with Staphylococcus aureus ATCC 43300.
In test [6] the test system is Candida albicans ATCC 10231.
Test [7] has as its system Cryptococcus neoformans ATCC 32045.
The test system of test [8] is Escherichia coli ATCC 2592.
In test [9] the test system is Pseudomonas aeruginosa ATCC 10145.
The subject of test [10] is Staphylococcus aureus ATCC 33591.
The test system of test [11] is Acinetobacter baumannii ATCC 19606.
The subject of test [12] is Candida albicans ATCC 90028.
For test [13], the system named is Cryptococcus neoformans ATCC 208821.
The test system of test [14] is Escherichia coli ATCC 25922.
For test [15], the system named is Klebsiella pneumoniae ATCC 700603.

In brackets after ≈: the same amount, converted by molar mass.

Regarding `CC(C)C[C@H](NC(=O)[C@H](C)NC(=O)CNC(=O)[C@H](Cc1ccccc1)NC(=O)[C@H](CC(C)C)NC(=O)[C@H](CC(C)C)NC(=O)[C@@H]1CCCN1C(=O)[C@H](Cc1ccccc1)NC(=O)[C@@H](N)Cc1ccccc1)C(=O)N[C@@H](CO)C(=O)N[C@@H](CO)C(=O)N[C@@H](Cc1cnc[nH]1)C(=O)N[C@@H](CC(C)C)C(=O)N1CCC[C@H]1C(=O)N[C@@H](CCCCN)C(=O)N[C@@H](CC(C)C)C(=O)N[C@@H](Cc1ccccc1)C(N)=O` [FFPLLFGALSSHLPKLF], the MIC with Bacillus subtilis came out at 3.88 µM (≈ 7.5 µg/mL); in [1], 1.94 µM (≈ 3.75 µg/mL); against Escherichia coli ML-35p, 7.75 µM (≈ 15 µg/mL); in test [2], 1.94 µM (≈ 3.75 µg/mL); in test [3] it was 1.94 µM (≈ 3.75 µg/mL); in [4], 1.94 µM (≈ 3.75 µg/mL). The compound also showed an MIC in test [5] of 3.88 µM (≈ 7.5 µg/mL).

On to `C[C@H](NC(=O)[C@H](CCCCN)NC(=O)[C@H](Cc1ccccc1)NC(=O)[C@H](C)NC(=O)[C@H](CCCCN)NC(=O)[C@H](Cc1ccccc1)NC(=O)[C@H](C)NC(=O)[C@H](CCCCN)NC(=O)[C@H](Cc1ccccc1)NC(=O)[C@H](C)NC(=O)[C@H](CCCCN)NC(=O)[C@H](Cc1ccccc1)NC(=O)[C@H](C)NC(=O)[C@H](CCCCN)NC(=O)[C@H](Cc1ccccc1)NC(=O)[C@H](C)NC(=O)[C@H](CCCCN)NC(=O)[C@H](Cc1ccccc1)NC(=O)[C@H](C)NC(=O)[C@H](CCCCN)NC(=O)[C@@H](N)Cc1ccccc1)C(=O)O` [FKAFKAFKAFKAFKAFKAFKA], for which the minimum inhibitory concentration (MIC) in test [6] is 145 µM (≈ 354 µg/mL); in test [7] it was 2.32 µM (≈ 5.66 µg/mL); in test [8], 9.26 µM (≈ 22.6 µg/mL); in test [9] it was 13.1 µM (≈ 32 µg/mL); in [10], at least 205 µM.

Consider `C[C@H](NC(=O)[C@H](Cc1ccccc1)NC(=O)[C@H](CCCCN)NC(=O)[C@H](CCCCN)NC(=O)[C@H](C)NC(=O)[C@H](Cc1ccccc1)NC(=O)[C@H](CCCCN)NC(=O)[C@H](CCCCN)NC(=O)[C@H](C)NC(=O)[C@H](Cc1ccccc1)NC(=O)[C@H](CCCCN)NC(=O)[C@H](CCCCN)NC(=O)[C@H](C)NC(=O)[C@H](Cc1ccccc1)NC(=O)[C@H](CCCCN)NC(=O)[C@H](CCCCN)NC(=O)[C@H](C)NC(=O)[C@H](Cc1ccccc1)NC(=O)[C@H](CCCCN)NC(=O)[C@H](CCCCN)NC(=O)[C@H](C)NC(=O)[C@H](Cc1ccccc1)NC(=O)[C@@H](N)CCCCN)C(=O)N[C@@H](CCCCN)C(=O)O` [KFAKKFAKKFAKKFAKKFAKKFAK], for which the MIC in [6] is 34.9 µM (≈ 100 µg/mL); in test [7], 7.9 µM (≈ 22.6 µg/mL); in [8] it was 3.95 µM (≈ 11.3 µg/mL); in test [9], 5.58 µM (≈ 16 µg/mL); in test [10] it was at least 61.7 µM.

`C[C@H](NC(=O)[C@H](Cc1ccccc1)NC(=O)[C@H](CCCCN)NC(=O)[C@H](CCCCN)NC(=O)[C@H](C)NC(=O)[C@H](Cc1ccccc1)NC(=O)[C@@H](N)CCCCN)C(=O)N[C@@H](CCCCN)C(=O)O` [KFAKKFAK]: the MIC in test [6] is over 258 µM; in [7], at least 258 µM; in [8], at least 258 µM; in test [9], at least 258 µM; in test [10], at least 258 µM.

Turning to `CC(C)C[C@H](NC(=O)[C@H](CCCCN)NC(=O)[C@H](CC(C)C)NC(=O)[C@H](CCCCN)NC(=O)[C@H](CC(C)C)NC(=O)[C@H](CCCCN)NC(=O)[C@H](CC(C)C)NC(=O)[C@H](CCCCN)NC(=O)[C@H](CC(C)C)NC(=O)[C@H](CCCCN)NC(=O)[C@H](CC(C)C)NC(=O)[C@H](CCCCN)NC(=O)[C@@H](N)CC(C)C)C(=O)N[C@@H](CCCCN)C(=O)O` [LKLKLKLKLKLKLK], the MIC in test [6] is 207 µM (≈ 354 µg/mL); in test [7], 1.66 µM (≈ 2.83 µg/mL); in test [8] it was 30.9 µM (≈ 52.8 µg/mL); in test [9] it was at least 73.2 µM; in [10], at least 207 µM.

In the case of `CC(C)C[C@H](NC(=O)[C@H](CCCN=C(N)N)NC(=O)[C@H](CC(C)C)NC(=O)[C@H](CCCN=C(N)N)NC(=O)[C@H](CC(C)C)NC(=O)[C@H](CCCN=C(N)N)NC(=O)[C@H](CC(C)C)NC(=O)[C@H](CCCN=C(N)N)NC(=O)[C@H](CC(C)C)NC(=O)[C@H](CCCN=C(N)N)NC(=O)[C@H](CC(C)C)NC(=O)[C@H](CCCN=C(N)N)NC(=O)[C@H](CC(C)C)NC(=O)[C@H](CCCN=C(N)N)NC(=O)[C@H](CC(C)C)NC(=O)[C@H](CCCN=C(N)N)NC(=O)[C@@H](N)CC(C)C)C(=O)N[C@@H](CCCN=C(N)N)C(=O)O` [LRLRLRLRLRLRLRLRLR], the MIC in [6] is 145 µM (≈ 354 µg/mL); in [7], at least 36 µM; in test [8], at least 51.2 µM; in test [9], at least 102 µM; in test [10], at least 72.4 µM.

Regarding `NC(N)=NCCC[C@H](NC(=O)[C@H](CCCN=C(N)N)NC(=O)[C@H](CS)NC(=O)[C@H](CCCN=C(N)N)NC(=O)[C@H](Cc1cnc[nH]1)NC(=O)[C@H](CO)NC(=O)[C@H](CCCN=C(N)N)NC(=O)[C@H](CS)NC(=O)[C@H](CS)NC(=O)[C@H](CCCN=C(N)N)NC(=O)[C@H](Cc1cnc[nH]1)NC(=O)[C@H](Cc1cnc[nH]1)NC(=O)[C@@H](N)CO)C(=O)O` [SHHRCCRSHRCRR], the MIC in [11] was over 18.9 µM; in [12], 18.9 µM (≈ 32 µg/mL); in test [13], 4.72 µM (≈ 8 µg/mL); in test [14], over 18.9 µM; in test [15], over 18.9 µM; in test [2], over 18.9 µM. In test [5], this compound showed an MIC of 18.9 µM (≈ 32 µg/mL).

On to `CC(C)C[C@H](NC(=O)[C@H](CCCN=C(N)N)NC(=O)[C@@H]1CCCN1C(=O)[C@H](CCCN=C(N)N)NC(=O)[C@H](Cc1cnc[nH]1)NC(=O)[C@H](Cc1cnc[nH]1)NC(=O)[C@@H](N)CO)C(=O)N[C@@H](Cc1ccccc1)C(=O)N[C@@H](Cc1cnc[nH]1)C(=O)N[C@@H](CCCN=C(N)N)C(=O)N[C@@H](Cc1cnc[nH]1)C(=O)N[C@@H](CCCN=C(N)N)C(=O)N[C@@H](Cc1cnc[nH]1)C(=O)O` [SHHRPRLFHRHRH], for which the MIC in test [11] was over 18 µM; in [12], 18 µM (≈ 32 µg/mL); in test [13] it was 18 µM (≈ 32 µg/mL); in [14], over 18 µM; in test [15] it was over 18 µM; in test [2], over 18 µM. In addition, the MIC in test [5] was over 18 µM.

Turning to `CC(C)C[C@H](NC(=O)[C@H](CCCN=C(N)N)NC(=O)[C@@H]1CCCN1C(=O)[C@H](CCCN=C(N)N)NC(=O)[C@H](Cc1cnc[nH]1)NC(=O)[C@H](Cc1cnc[nH]1)NC(=O)[C@@H](N)CO)C(=O)N[C@@H](Cc1ccccc1)C(=O)N[C@@H](Cc1cnc[nH]1)C(=O)N[C@@H](CCCN=C(N)N)C(=O)N[C@@H](CCCN=C(N)N)C(=O)N[C@@H](CCCN=C(N)N)C(=O)N[C@@H](Cc1cnc[nH]1)C(=O)O` [SHHRPRLFHRRRH], the MIC in test [11] was over 17.9 µM; in [12] it was 17.9 µM (≈ 32 µg/mL); in test [13], 17.9 µM (≈ 32 µg/mL); in test [14], over 17.9 µM; in test [15] it was over 17.9 µM; in test [2] it was over 17.9 µM. In addition, in test [5], the MIC was over 17.9 µM.

On to `CC[C@H](C)[C@H](NC(=O)[C@H](C)NC(=O)[C@@H](NC(=O)[C@@H](NC(=O)[C@H](CCCCN)NC(=O)[C@@H](NC(=O)[C@H](CCCCN)NC(=O)[C@H](CC(=O)O)NC(=O)[C@H](CCCN=C(N)N)NC(=O)[C@@H](NC(=O)[C@@H](N)CO)[C@@H](C)CC)[C@@H](C)CC)[C@@H](C)O)[C@@H](C)CC)C(=O)N[C@@H](CC(=O)O)C(=O)N[C@@H](CC(C)C)C(=O)N[C@@H](C)C(=O)N[C@@H](CCCCN)C(=O)N[C@@H](CO)C(=O)N[C@@H](C)C(=O)NCC(=O)N[C@H](C(=O)NCC(=O)N[C@H](C(=O)N[C@@H](CC(C)C)C(=O)N[C@@H](CCCCN)C(=O)N[C@H](C(=O)N[C@@H](CC(C)C)C(=O)N[C@H](C(=O)N[C@H]1CSSC[C@@H](C(=O)O)NC(=O)[C@H](CO)NC(=O)[C@H](CCCCN)NC(=O)[C@H](CC(N)=O)NC(=O)[C@H](CC(C)C)NC(=O)[C@H](CCCCN)NC1=O)[C@@H](C)CC)[C@@H](C)O)C(C)C)[C@@H](C)O` [SIRDKIKTIAIDLAKSAGTGVLKTLICKLNKSC], for which the MIC was 5.35 µM (≈ 18.7 µg/mL) in the test with Bacillus subtilis; 5.35 µM (≈ 18.7 µg/mL) in [1]; 7.14 µM (≈ 25 µg/mL) against Escherichia coli ML-35p; 4.28 µM (≈ 15 µg/mL) in test [4]; 3.57 µM (≈ 12.5 µg/mL) in test [5].
